Assay results from US10022382B2, “RNA polymerase I inhibitors and uses thereof” (Tel HaShomer Medical Research Infrastructure and Services …, priority 2013, dated 2018).

Experiments:
[1] = test system: Experimental Autoimmune Encephalomyelitis (EAE); conditions: cited from earlier work
Solubility in mQ water = type: physicochemical; conditions: 50 mg in 0.5 mL mQ water, room temperature
Description: The solubility of Compounds 1 and 10 was determined by dissolving 50 mg of the tested compound in 0.5 mL of mQ water, at room temperature.

Mouse splenocytes = experiment: XTT cell viability assay, PHA-stimulated splenocytes; type: cell-based; conditions: 72 hours; for IC50: Splenocyte; for IC50 / XTT IC50: mouse splenocytes, 25-400 nM
Description: Cell viability was assessed by the 2,3 bis [2-Methoxy-4-nitro-5-sulfophenyl]-2H-tetrazolium-5-carboxanilide (XTT) assay (Biological Industries, Kibbutz Beit Hemeek, Israel), which measures the reduction of a tetrazolium component (XTT) into soluble formazan product by the mitochondria of viable cells. The intensity of the dye obtained is proportional to the number of metabolic active cells. On the day of measurement, cells were washed and XTT was added according to the manufacturer's instructions. Plates were incubated at 37° C. for 2-5 hours. The absorbance was read at 450 nm.
Mouse splenocytes were removed and spleenocytes were plated (250,000 cell/well) in DMEM+10% FCS+P/S+Q and […] Phytohaemaglutinin (PHA), in the presence of elevated concentrations (25-400 nM) of RAM-0 (Compound 1), RAM-1 (Compound 4), RAM-2 (Compound 2) or RAM-3 (Compound 3) for 72 hours. Cells cultured without PHA served as control. Control mice at zero are mice splenocytes with PHA stimulation.
Following incubation, cell viability was determined by XTT assay, as described above.

[2] = Toxicity (LD50, survival) in the EAE model, continuous administration; type: in vivo; conditions: C57BL/6J, mouse, in vivo, oral; EAE prevention model, continuous administration
Description: (§1) The animals were evaluated for signs of acute toxicity and survival during the entire administration period in the EAE model.
(§2) The therapeutic index (LD50/ED50), which is also referred to herein as Safety Margin (SM), was then determined based on the EAE model.

C57BL/6J mice = experiment: as above; type: in vivo; conditions: EAE prevention model
Description: as §1, §2

[3] = test system: MOG35-55 EAE in C57BL/6J mice; experiment: MOG35-55 EAE prevention (immunization) model; type: in vivo; conditions: Mus musculus
Description: Mice: Eight-weeks-old female C57BL/6J mice (15-20 g, Harlan laboratories, Rehovot, Israel) were used in all experiments. Animal maintenance and experimental protocols were performed in accordance with the Israeli Council for Animal Care guidelines and approved by Sheba IRB Animal Care Committee. Mice were kept in an SPF environment, maintained on a 12-h light/dark cycle at a constant environmental temperature with free access to food and water in their home cages.
Induction of MOG35-55 EAE (Prevention Model): EAE (Experimental Autoimmune Encephalomyelitis) was induced in 8 week old female C57BL/6J mice (15-20 g, Harlan laboratories, Rehovot, Israel) by immunization with an emulsion containing 300 μg of purified myelin oligodendrocyte glycoprotein (MOG) peptide ([…], corresponding to residues 35-55; obtained from (Difco, Detroit, Mich.) in saline and an equal volume of complete Freund's adjuvant containing 5 mg H37RA (Difco, Detroit, Mich.). 0.2 ml of the inoculum was injected subcutaneously. In addition, 300 ng of Bordetella pertusis toxin (Sigma) in 0.2 ml saline was injected intraperitoneally at the day of induction and two days later.
Oral gavages with the tested compound, at various concentrations ranging from 3 mg/kg-30 mg/kg in PBS or 50 mM NaH2PO4 (PH 4.5), or with vehicle only, were initiated at day of immunization. Mice were monitored daily for clinical signs of EAE, scored as: 1, flaccid tail; 2, forelimb weakness and poor righting ability; 3, hind limb paralysis; 4, quadriplegia; 5, moribund. Animal reaching a score of 4 were scarified using CO2.
Treatment was stopped once 30% of the vehicle-treated animals scored 1 on the EAE score. […]
The therapeutic index (LD50/ED50), which is also referred to herein as Safety Margin (SM), was then determined based on the EAE model. ED50 is the minimum effective dose observed for 50% of the tested animals.

POL-I = conditions: human cancer cell lines; cited from earlier work

SMILES: Cc1cnc(CNC(=O)c2c(=O)c3ccc(N4CCCN(C)CC4)nc3n3c2sc2ccccc23)cn1 [Compound 1, 2-(4-methyl-1,4-diazepan-1-yl)-N-((5-methylpyrazin-2-yl)methyl)-5-oxo-5H-benzo[4,5]thiazolo[3,2-a][1,8]naphthyridine-6-carboxamide, reference compound]
- EAE disease severity ([1]; administered at clinical disease onset): reduce the disease severity
- EAE prevention ([1]; administered at disease induction): prevent animal Experimental Autoimmune Encephalomyelitis (EAE)
- solubility (Solubility in mQ water): dissolved only in a pH 4.5 buffered solution after vigorous stirring for 30 minutes
- IC50 (Mouse splenocytes): 50 nM
- LD50 [2]: 25 mg/kg
- SM (therapeutic index LD50/ED50) (C57BL/6J mice): 2
- ED50 [3]: 12.5 mg/kg
- POL-I activity (POL-I): inhibited POL-I activity

SMILES: Cc1cnc(CNC(=O)c2c(Cl)c3ccc(N4CCCN(C)CC4)nc3[n+]3c2sc2ccccc23)cn1 [Compound 2, 5-chloro-2-(4-methyl-1,4-diazepan-1-yl)-6-(((5-methylpyrazin-2-yl)methyl)carbamoyl)benzo[4,5]thiazolo[3,2-a][1,8]naphthyridin-12-ium]
- suppression of splenocyte proliferation compared to Compound 1 (XTT) (Mouse splenocytes): no substantial effect
- XTT IC50 (Mouse splenocytes): No Effect

SMILES: Cc1cnc(CNC(=O)c2c(=S)c3ccc(N4CCCN(C)CC4)nc3n3c2sc2ccccc23)cn1 [Compound 3, 2-(4-methyl-1,4-diazepan-1-yl)-N-((5-methylpyrazin-2-yl)methyl)-5-thioxo-5H-benzo[4,5]thiazolo[3,2-a][1,8]naphthyridine-6-carboxamide]
- effectiveness in suppressing proliferation compared to Compound 1 (Mouse splenocytes): 6 folds
- IC50 (Mouse splenocytes): 20 nM

SMILES: Cc1cnc(CNC(=O)c2c(=N)c3ccc(N4CCCN(C)CC4)nc3n3c2sc2ccccc23)cn1 [Compound 4, 5-imino-2-(4-methyl-1,4-diazepan-1-yl)-N-((5-methylpyrazin-2-yl)methyl)-5H-benzo[4,5]thiazolo[3,2-a][1,8]naphthyridine-6-carboxamide]
- suppression of splenocyte proliferation compared to Compound 1 (XTT) (Mouse splenocytes): dose response curve similar to RAM-0 (Compound 1)
- IC50 (Mouse splenocytes): 50 nM

SMILES: C/N=c1/c(C(=O)NCc2cnc(C)cn2)c2sc3ccccc3n2c2nc(N3CCCN(C)CC3)ccc12 [Compound 5, (E/Z)-2-(4-methyl-1,4-diazepan-1-yl)-5-(methylimino)-N-((5-methylpyrazin-2-yl)methyl)-5H-benzo[4,5]thiazolo[3,2-a][1,8]naphthyridine-6-carboxamide]
- IC50 (Mouse splenocytes): 50 nM

SMILES: CCC/N=c1/c(C(=O)NCc2cnc(C)cn2)c2sc3ccccc3n2c2nc(N3CCCN(C)CC3)ccc12 [Compound 6]
- IC50 (Mouse splenocytes): 50 nM

SMILES: Cc1cnc(CNC(=O)c2/c(=N/C(C)C)c3ccc(N4CCCN(C)CC4)nc3n3c2sc2ccccc23)cn1 [Compound 7]
- IC50 (Mouse splenocytes): 50 nM

SMILES: CO/N=c1/c(C(=O)NCc2cnc(C)cn2)c2sc3ccccc3n2c2nc(N3CCCN(C)CC3)ccc12 [Compound 8]
- IC50 (Mouse splenocytes): 50 nM

SMILES: Cc1cnc(CNc2nc(=O)nc3c4ccc(N5CCCN(C)CC5)nc4n4c(sc5ccccc54)c2-3)cn1 [Compound 9]
- XTT IC50 (Mouse splenocytes): No Effect
